The assay relates to M. tuberculosis isoniazid resistant strain. Description: microbe, parasite or virus in culture. Format: cell-based. Conditions: Mycobacterium tuberculosis.

The structures appear in SMILES notation. Converted amounts (≈) assume the structure as drawn.

The compound `CC(=O)Nc1ccccc1C(=O)C(=O)NNC(=O)c1ccncc1` [Compound 2, N-(2-(2-(2-Isonicotinoylhydrazine)-2-Oxoacetyl)Phenyl) Acetamide] yielded an MIC of 19.2 µM (≈ 6.26 µg/mL).
In the case of `NNC(=O)c1ccncc1` [Isoniazid] it was > 73 µM.

The values are drawn from patent publication US10065927B2, “α-ketoacylic isoniazid compounds, process for producing said compounds, use of the compounds in the treatment of tuberculosis” (priority 2015, dated 2018).
